Assay results published in article PMC10076671, “Spider venom-derived peptide JZTX-14 prevents migration and invasion of breast cancer cells via inhibition of sodium channels” (Frontiers in Pharmacology, 2023).
Where a SMILES comes first, the peptide text is derived from it. Bridges are numbered along the chain shown (N, C = ends).

Key:
[1] = tested on: human breast cancer cells; conditions: ref Wannous et al., 2015; cited from earlier work
Text: (§1) Voltage-gated sodium channels (Navs; VGSCs) are membrane proteins with nine isoforms responsible for the rapid upstroke of action potentials in excitable cells ([de Lera Ruiz and Kraus, 2015]). VGSCs are present in excitable and non-excitable cells, including microglia, astrocytes, immune cells, fibroblasts, and cancer cells, and play various biological roles, such as tumour cell migration and immune cell phagocytosis ([Black and Waxman, 2013]; [Roger et al., 2015]). Nav1.5, encoded by SCN5A, is an essential receptor in breast cancer growth and migration ([Rajaratinam et al., 2022]).

MDA-MB-231 cells [2] = conditions: strongly metastatic MDA-MB-231 cells; ref Yang et al., 2012; cited from earlier work
Text: as §1

MDA-MB-231 cells [3] = conditions: ref Yang et al., 2012; cited from earlier work
Text: Voltage-gated sodium channels (Navs; VGSCs) are membrane proteins with nine isoforms responsible for the rapid upstroke of action potentials in excitable cells ([de Lera Ruiz and Kraus, 2015]). VGSCs are present in excitable and non-excitable cells, including microglia, astrocytes, immune cells, fibroblasts, and cancer cells, and play various biological roles, such as tumour cell migration and immune cell phagocytosis ([Black and Waxman, 2013]; [Roger et al., 2015]). Nav1.5, encoded by SCN5A, is an essential receptor in breast cancer growth and migration ([Rajaratinam et al., 2022]). […] Nav1.5, a pore-forming alpha subunit of VGSC encoded by SCN5A, is not expressed in normal breast tissue or cells but is highly expressed in the breast cancer cell line MDA-MB-231 ([Dutta et al., 2018]). Elevated Nav1.5 expression promotes cell invasion and breakdown of extracellular matrix proteins, maintains ac ... || A peptide with anticancer activity was isolated and purified from animal venom to construct a new anticancer drug library. Compared to small-molecule drugs, peptide drugs have the advantages of high selectivity and affinity for molecular targets, and it is not easy to make tumours resistant to drugs ([Wu et al., 2014]). To date, many anticancer peptides have been screened from animal venom. […] Melittin, ...

breast cancer cell = conditions: ref Driffort et al., 2014; cited from earlier work
Text: as §1

Nav1.5 = format: cell-based; conditions: Discussion: HEK293 cells heterologously expressing Nav1.5, 0.1 and 1 μM
Protocol: Sodium currents in experimental cells were recorded at room temperature (22°C–25°C) using an EPC-10 patch-clamp amplifier (HEKA, Germany) in a whole-cell patch-clamp configuration. Recording pipettes were made from borosilicate glass capillaries (VWR, United States) using a PC-10 puller (Narishige, Japan). The inner solution (mM): KCl 130, NaCl 15, CaCl2 0.37, MgCl2 1 EGTA 1, HEPES 10, pH 7.2, resistance was measured as 1.8 MO. The outer solution was composed of (mM): NaCl 140, KCl 3, MgCl2 1, CaCl2 1, HEPES 10, pH 7.2. To minimize voltage errors, the series resistance compensation was set to 80%. The P/4 protocol was used to subtract the linear capacitance and leakage current. Experimental data were acquired and analyzed using the pulse fit 8.0 program (HEKA, Germany). The needed concentrations of toxin dissolved in external solution were applied to the cell surface by microinjector.
To determine the biological activity of synthetic and natural JZTX-14 on Nav1.5, we observed their effects on HEK293T cells heterologously expressing Nav1.5 using a whole-cell voltage-clamp configuration. The current traces were induced by a 50 ms depolarisation potential of −30 mV at a holding potential of −100 mV. Currents were recorded by adding 0.1 μM and 0.5 μM of JZTX-14 to the solution.

breast cancer cells = conditions: inhibiting the PI3K/Akt/mTOR signalling pathway, ref Lim et al., 2019; cited from earlier work
Text: A peptide with anticancer activity was isolated and purified from animal venom to construct a new anticancer drug library. Compared to small-molecule drugs, peptide drugs have the advantages of high selectivity and affinity for molecular targets, and it is not easy to make tumours resistant to drugs ([Wu et al., 2014]). To date, many anticancer peptides have been screened from animal venom. […] Melittin, ...

In the case of `CC/C=C\C/C=C\C/C=C\C/C=C\C/C=C\C/C=C\CCC(=O)O` [DHA], the “Invasiveness of Nav1.5-dependent cancer cells” value [1] is listed as “reducing the invasiveness of Nav1.5-dependent cancer cells” and the “Nav1.5 current and NHE-1 activity” value [1] is listed as “inhibits Nav1.5 current and NHE-1 activity”.

In the case of `O=C1NC(=O)C(c2ccccc2)(c2ccccc2)N1` [Phenytoin], the “Transient and persistent Na+ current” value (MDA-MB-231 cells [2]) is given as “inhibited the transient and persistent Na^+ current” and the Migration and invasion (MDA-MB-231 cells [3]) is given as “significantly inhibiting the migration and invasion”.

In the case of `COc1ccccc1OCC(O)CN1CCN(CC(=O)Nc2c(C)cccc2C)CC1` (stereo not shown) [Ranolazine], the “Nav1.5-mediated breast cancer cell invasiveness and lung colonisation” value (breast cancer cell) is given as “inhibits Nav1.5-mediated breast cancer cell invasiveness and lung colonisation”.

In the case of `CC[C@H](C)[C@H](NC(=O)[C@@H]1CSSC[C@@H]2NC(=O)[C@@H]3CCCN3C(=O)[C@@H]3CCCN3C(=O)[C@H](CCC(N)=O)NC(=O)CNC(=O)[C@@H]3CCCN3C(=O)[C@H](Cc3c[nH]cn3)NC(=O)[C@@H]3CSSC[C@H](NC(=O)[C@H](C)NC(=O)[C@H](CC(C)C)NC(=O)CNC(=O)[C@H](CO)NC(=O)[C@H](CSSC[C@H](NC(=O)CN)C(=O)N[C@@H](CCC(N)=O)C(=O)N[C@@H](CCCCN)C(=O)N[C@@H](Cc4ccccc4)C(=O)N[C@@H](Cc4ccccc4)C(=O)N[C@@H](Cc4c[nH]c5ccccc45)C(=O)N[C@@H]([C@@H](C)O)C(=O)N3)NC2=O)C(=O)N[C@@H]([C@@H](C)O)C(=O)N[C@@H](Cc2c[nH]c3ccccc23)C(=O)N2CCC[C@H]2C(=O)N[C@@H]([C@@H](C)O)C(=O)N[C@@H](CCC(=O)O)C(=O)N[C@@H]([C@@H](C)CC)C(=O)N1)C(=O)N[C@@H](CC(C)C)C(N)=O` [natural JZTX-14] (H-GCQKFFWTCHPGQPPCCSGLACTWPTEICIL-NH2; disulfide 2-17, 9-22, 16-29), the “Inhibition of Nav1.5 channels (in words)” value (Nav1.5) is reported as “significantly inhibited Nav1.5 channels in a concentration-dependent manner”.

In the case of “Melittin: the main peptide component of Apis mellifera venom”, the “EGF-induced cell movement and invasion” value (breast cancer cells) is given as “inhibits EGF-induced cell movement and invasion”.
